Measurements as given in US10065990B2, “Cyclic peptide compound, and preparation method, pharmaceutical composition and use thereof” (HANGZHOU GUANYU BIO-MEDICAL CO., LTD, priority 2013, dated 2018).
Read-outs that look alike come from different tables or passages of the source.

Columns and labels:
HDAC7 = molecular target: T1, HDAC7 (Homo sapiens, UniProt Q8WUI4); assay: HDAC biochemical activity measurement (fluorescent substrate deacetylation);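 on all read-outs here: fluorogenic deacetylation assay using acetyl-lysine substrate at 20 µM, enzyme and compound incubated 30 min at 37 °C, then developer added, fluorescence read at 360/460 nm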; conditions: for IC50 HDAC7: 37° C. 30 minutes
T1 sequence (Q8WUI4 1-952): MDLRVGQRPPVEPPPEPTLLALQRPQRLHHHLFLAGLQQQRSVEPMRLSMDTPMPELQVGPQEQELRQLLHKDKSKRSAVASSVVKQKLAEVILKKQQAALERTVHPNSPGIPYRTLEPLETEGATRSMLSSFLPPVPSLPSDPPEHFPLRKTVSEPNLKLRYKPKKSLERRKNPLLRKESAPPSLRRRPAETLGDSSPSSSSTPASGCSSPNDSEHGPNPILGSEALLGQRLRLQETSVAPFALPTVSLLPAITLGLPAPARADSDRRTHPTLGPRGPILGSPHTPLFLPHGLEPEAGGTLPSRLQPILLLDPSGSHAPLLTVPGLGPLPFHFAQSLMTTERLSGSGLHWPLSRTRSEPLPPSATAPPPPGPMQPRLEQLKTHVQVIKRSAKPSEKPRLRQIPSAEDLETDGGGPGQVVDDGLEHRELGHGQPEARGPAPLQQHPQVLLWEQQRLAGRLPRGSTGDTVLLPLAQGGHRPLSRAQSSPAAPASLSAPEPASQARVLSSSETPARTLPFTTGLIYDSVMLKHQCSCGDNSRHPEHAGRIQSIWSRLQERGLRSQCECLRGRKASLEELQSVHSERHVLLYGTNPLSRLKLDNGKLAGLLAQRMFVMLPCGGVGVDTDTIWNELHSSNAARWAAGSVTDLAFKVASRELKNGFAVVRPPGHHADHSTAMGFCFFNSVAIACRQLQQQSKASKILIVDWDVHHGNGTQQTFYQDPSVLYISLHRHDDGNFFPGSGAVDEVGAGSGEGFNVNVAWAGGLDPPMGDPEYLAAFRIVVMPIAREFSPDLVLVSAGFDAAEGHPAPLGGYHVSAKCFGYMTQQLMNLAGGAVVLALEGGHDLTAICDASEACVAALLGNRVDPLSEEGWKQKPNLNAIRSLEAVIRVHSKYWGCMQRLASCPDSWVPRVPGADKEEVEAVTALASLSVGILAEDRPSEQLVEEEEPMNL

[1] = test system: A549 (human lung cancer cells); assay: MTT cancer cell growth inhibition; type: cell-based; conditions: Homo sapiens, A549, 72 h, MTT, 72 hours incubation, read-out: GI50 A54
Method in brief: (§1)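 GI50 values come from viability measured by MTT reduction at 570 nm. Plated overnight at 1500 cells per well, cultures received drug in three parallel wells across 10^−5–10^−10 M final and were incubated 72 h at 37° C. under 5% CO2 before MTT for 4 h.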

[2] = test system: BGC-823 (human gastric cancer cells); assay: MTT cancer cell growth inhibition; type: cell-based; conditions: Homo sapiens, BGC-823, 72 h, MTT, 72 hours incubation, read-out: GI50 BG
Method in brief: as §1

[3] = test system: Bel-7402 (human hepatoma cells); assay: MTT cancer cell growth inhibition; type: cell-based; conditions: Homo sapiens, Bel-7402, 72 h, MTT, 72 hours incubation, Bel-7402 cells; read-out: GI50 Bel-7402
Method in brief: as §1

[4] = test system: DU145 (human prostate cancer cells); assay: MTT cancer cell growth inhibition; type: cell-based; conditions: Homo sapiens, DU-145, 72 h, MTT, 72 hours incubation, read-out: GI50 Du1
Method in brief: as §1

[5] = test system: H1975 (non-small cell lung adenocarcinoma); assay: MTT cancer cell growth inhibition; type: cell-based; conditions: Homo sapiens, NCI-H1975, 72 h, MTT, 72 hours incubation, H1975 cells; read-out: GI50 H1975
Method in brief: as §1

[6] = test system: HCC827 (human non-small cell lung cancer cells); assay: MTT cancer cell growth inhibition; type: cell-based; conditions: Homo sapiens, HCC827, 72 h, MTT, 72 hours incubation, HCC827 cells; read-out: GI50 HCC827
Method in brief: as §1

[7] = test system: HT1080 (human fibrosarcoma cells); assay: MTT cancer cell growth inhibition; type: cell-based; conditions: Homo sapiens, HT-1080, 72 h, MTT, 72 hours incubation, read-out: GI50 HT1
Method in brief: as §1

[8] = test system: Hela (human cervical cancer cells); assay: MTT cancer cell growth inhibition; type: cell-based; conditions: Homo sapiens, HeLa, 72 h, MTT, 72 hours incubation, read-out: GI50 Hela
Method in brief: as §1

[9] = test system: Huh-7 (human hepatoma cells); assay: MTT cancer cell growth inhibition; type: cell-based; conditions: Homo sapiens, Huh-7, 72 h, MTT, 72 hours incubation, Huh-7 cells; read-out: GI50 Huh-7
Method in brief: as §1

[10] = test system: K562 (human leukemia cells); assay: MTT cancer cell growth inhibition; type: cell-based; conditions: Homo sapiens, K562, 72 h, MTT, 72 hours incubation, K562 cells; read-out: GI50 K562
Method in brief: as §1

[11] = test system: KBM-5 (human chronic myelogenous leukemia); assay: MTT cancer cell growth inhibition; type: cell-based; conditions: Homo sapiens, KBM5, 72 h, MTT, 72 hours incubation, KBM-5 cells; read-out: GI50 KBM-5
Method in brief: as §1

[12] = test system: KBM5-T315I (human chronic myelogenous leukemia); assay: MTT cancer cell growth inhibition; type: cell-based; conditions: Homo sapiens, 72 h, MTT, 72 hours incubation, KBM5-T315I cells; read-out: GI50 KBM5-T315I
Method in brief: as §1

[13] = test system: MCF-7 (human breast cancer cells); assay: MTT cancer cell growth inhibition; type: cell-based; conditions: Homo sapiens, MCF7, 72 h, 72 hours incubation, read-out: GI50 MCF
Method in brief: as §1

[14] = test system: MDA-MB-231 (breast cancer cells); assay: MTT cancer cell growth inhibition; type: cell-based; conditions: Homo sapiens, MDA-MB-231, 72 h, read-out: GI50 MDA-MB-231, MTT, 72 hours incubation, MDA-MB-231 cells
Method in brief: as §1

[15] = test system: MOLT-4 (human acute lymphoblastic leukemia cells); assay: MTT cancer cell growth inhibition; type: cell-based; conditions: Homo sapiens, MOLT-4, 72 h, MTT, 72 hours incubation, read-out: GI50 Mol
Method in brief: as §1

[16] = test system: N-87 (human gastric cancer cells); assay: MTT cancer cell growth inhibition; type: cell-based; conditions: Homo sapiens, 72 h, MTT, 72 hours incubation, N-87 cells; read-out: GI50 N-87
Method in brief: as §1

[17] = test system: PANC-1 (Pac-1, human pancreatic cancer cells); assay: MTT cancer cell growth inhibition; type: cell-based; conditions: Homo sapiens, PANC-1, 72 h, MTT, 72 hours incubation, read-out: GI50 PAN
Method in brief: as §1

[18] = test system: SGC-7901 (human gastric cancer cells); assay: MTT cancer cell growth inhibition; type: cell-based; conditions: Homo sapiens, SGC-7901, 72 h, MTT, 72 hours incubation, SGC-7901 cells; read-out: GI50 SGC-7901
Method in brief: as §1

[19] = test system: U937 (human leukemia cells); assay: MTT cancer cell growth inhibition; type: cell-based; conditions: Homo sapiens, U-937, 72 h, MTT, 72 hours incubation, read-out: GI50 U93
Method in brief: as §1

[20] = test system: lncap (prostate cancer cells); assay: MTT cancer cell growth inhibition; type: cell-based; conditions: Homo sapiens, LNCaP, 72 h, MTT, 72 hours incubation, read-out: GI50 lnca
Method in brief: as §1

Row | Structure (SMILES) | IC50 HDAC7 (HDAC7) | GI50 [1] | GI50 [2] | GI50 [3] | GI50 [4] | GI50 [5] | GI50 [6] | GI50 [7] | GI50 [8] | GI50 [9] | GI50 [10] | GI50 [11] | GI50 [12] | GI50 [13] | GI50 [14] | GI50 [15] | GI50 [16] | GI50 [17] | GI50 [18] | GI50 [19] | also measured
1 | C/C=C1\NC(=O)c2cc(F)cc(n2)CNC(=O)C[C@@H](/C=C/CCS)OC(=O)[C@H](CCCCNC(=O)OCC2c3ccccc3-c3ccccc32)NC1=O [Compound 121] | no activity | 210 nM | 190 nM | 26 nM | 30 nM | 28 nM | 42 nM | 70 nM | 50 nM | 45 nM | 38 nM | 46 nM | 23 nM | 20 nM | 75 nM | 30 nM | 23 nM | 70 nM | 33 nM | 60 nM | GI50 [20]: 110 nM
2 | C/C=C1\NC(=O)c2cccc(n2)CNC(=O)C[C@@H](/C=C/CCS)OC(=O)[C@H](Cc2cccc3ccccc23)NC1=O [Compound 123] | no activity | 60 nM | 40 nM | 27 nM | 60 nM | 21 nM | 69 nM | 90 nM | 90 nM | 35 nM | 36 nM | 68 nM | 67 nM | 60 nM | 39 nM | 90 nM | 62 nM | 40 nM | 51 nM | 60 nM | GI50 [20]: 90 nM
3 | C/C=C1\NC(=O)c2cc(F)cc(n2)CNC(=O)C[C@@H](/C=C/CCS)OC(=O)[C@H](C)NC1=O [Compound 113] | no activity | 60 nM | 70 nM | 34 nM | 50 nM | 24 nM | 48 nM | 100 nM | 80 nM | 21 nM | 47 nM | 36 nM | 51 nM | 50 nM | 31 nM | 100 nM | 42 nM | 70 nM | 95 nM | 60 nM | GI50 [20]: 80 nM

More lines, main results first:

Row | IC50 HDAC7 (HDAC7) | GI50 [1] | GI50 [2] | GI50 [3] | GI50 [4] | GI50 [5] | GI50 [6] | GI50 [7] | GI50 [8] | GI50 [9] | GI50 [10] | GI50 [11] | GI50 [12] | GI50 [13] | GI50 [14] | GI50 [15] | GI50 [16] | GI50 [17] | GI50 [18] | GI50 [19] | Structure (SMILES) | also measured
4 | no activity | 50 nM | 20 nM | 56 nM | 40 nM | 31 nM | 51 nM | 70 nM | 70 nM | 46 nM | 28 nM | 82 nM | 71 nM | 20 nM | 126 nM | 30 nM | 61 nM | 70 nM | 42 nM | 40 nM | C/C=C1\NC(=O)c2nc(ccc2F)CNC(=O)C[C@@H](/C=C/CCS)OC(=O)[C@H](CC)NC1=O [Compound 109] | GI50 [20]: 30 nM
5 | – | – | – | 29 nM | – | 65 nM | 93 nM | – | – | 33 nM | 48 nM | 23 nM | 72 nM | – | 45 nM | – | 83 nM | – | 26 nM | – | C/C=C1\NC(=O)c2cc(SCC)cc(n2)CNC(=O)C[C@@H](/C=C/CCSC(=O)CCCCCCC)OC(=O)[C@H](C(C)C)NC1=O [Compound 248] | IC50 (μM) HDAC7 (HDAC7): no activity; GI50 ([1]; A549 cells): 30 nM; GI50 ([2]; BGC-823 cells): 60 nM; GI50 ([4]; DU145 cells): 30 nM; GI50 ([7]; HT1080 cells): 50 nM; GI50 ([8]; Hela cells): 60 nM; GI50 ([13]; MCF-7 cells): 30 nM; GI50 ([15]; MOLT-4 cells): 30 nM; GI50 ([17]; PANC-1 cells): 20 nM; GI50 ([19]; U937 cells): 80 nM; GI50 ([20]; lncap cells): 30 nM
6 | – | – | – | 79 nM | – | 90 nM | 76 nM | – | – | 26 nM | 81 nM | 72 nM | 81 nM | – | 42 nM | – | 67 nM | – | 35 nM | – | C/C=C1\NC(=O)c2ccc(SCC)c(n2)CNC(=O)C[C@@H](/C=C/CCSC(=O)CCCCCC)OC(=O)[C@H](C(C)C)NC1=O [Compound 252] | IC50 (μM) HDAC7 (HDAC7): no activity; GI50 ([1]; A549 cells): 50 nM; GI50 ([2]; BGC-823 cells): 30 nM; GI50 ([4]; DU145 cells): 70 nM; GI50 ([7]; HT1080 cells): 40 nM; GI50 ([8]; Hela cells): 50 nM; GI50 ([13]; MCF-7 cells): 20 nM; GI50 ([15]; MOLT-4 cells): 90 nM; GI50 ([17]; PANC-1 cells): 60 nM; GI50 ([19]; U937 cells): 40 nM; GI50 ([20]; lncap cells): 50 nM
7 | no activity | 40 nM | 10 nM | 21 nM | 30 nM | 97 nM | 47 nM | 70 nM | 50 nM | 56 nM | 19 nM | 23 nM | 53 nM | 20 nM | 86 nM | 20 nM | 93 nM | 70 nM | 16 nM | 50 nM | C/C=C1\NC(=O)c2ccc(F)c(n2)CCNC(=O)C[C@@H](/C=C/CCSC(C)=O)OC(=O)[C@H](C(C)C)NC1=O [Compound 105] | GI50 [20]: 20 nM
